“Also recorded” adds a separate entry of the source. No end group written: not given here. Man6GlcNAc2 = high-mannose N-glycan (six mannose on two GlcNAc); GlcNAc = N-acetyl-glucosamine (single GlcNAc)

Experimental findings from patent US20260091138A1, “VARIANTS OF COAGULATION FACTOR VIII AND USES THEREOF” (Seattle Children’s Hospital d/b/a Seattle Children’s …, priority 2022, published 2026) are described below.

For data set [1], the system named is CD4+ T-cells in splenocytes isolated from FVIII-primed HA mice. Briefly: FVIII-specific CD4+ T-cell proliferation assay. The format is cell-based, mouse. To be noted: for CD4+ T-cell proliferation: 96 hours, background subtracted; for effect of peptide on CD4+ T-cell proliferation (in words): peptides 0.1 μM to 10 μM. The procedure:
(§1) CD4^+ T-cell Proliferation Assay. Mice with high titer anti-FVIII inhibitors were generated as described in the Supplemental Methods. Mouse splenocytes were isolated and stained with BD Horizon™ violet cell proliferation dye 450 (VPD450) (BD Biosciences). The labeled splenocytes were cultured and stimulated by adding FVIII as a positive proliferation control, Factor IX as a nonspecific antigen control, or peptides, either glycosylated or non-glycosylated, corresponding to site N2118. Mannan (0.1, 1, and 10 μM, respectively) was added in mannan inhibition experiments. After 96 hours, cells were stained with anti-mouse CD4 and Fixable Viability Stain (Fisher Scientific) and analyzed by flow cytometry (BDT LSR II analyzer (Fisher Scientific)). The enhancement of proliferation was calculated by subtracting the background levels in non-stimulated cells.
Generation of hemophilia A mice with high-titer inhibitors. Anti-FVIII inhibitor mice were generated by priming the mice with 3 units (U) of recombinant full-length FVIII in 200 uL PBS 3× a week for four weeks. Mice were then sacrificed on week 5 for spleen collection or boosted one-week prior to spleen collection. Blood was drawn via retro-orbital bleed on the day of sacrifice in the same manner as before in order to measure IgG titer via enzyme-linked immunosorbent assay (ELISA).

In data set [2] the test system is HA mice. Briefly: FVIII functional activity (aPTT) and FVIII:Ag after hydrodynamic injection of BDD-FVIII and glycosylation variant plasmids. The format is in vivo, mouse. The conditions noted are these: one-week post hydrodynamic plasmid injection, average ± SD. How it is done:
(§2) Delivery of plasmids carrying BDD-FVIII and its glycosylation variants genes into HA mice. Male HA mice with a FVIII exon 16 knockout in an Sv129/BL6 mixed background between the ages of 8-14 weeks were used in all experiments. Mice were injected with liver-specific plasmids carrying BDD-FVIII and its glycosylation variants genes (FIG. 2) via hydrodynamic injection at a concentration of 25 μg/mL and a volume (ml) equal to 9% the body weight of the mouse (g). A second challenge (SC) of the same plasmids via hydrodynamic injection was performed on Day 86 to elicit robust secondary immune responses. Blood was collected by retro-orbital bleed in one-tenth volume of 3.8% sodium citrate periodically following plasmid injections.
FVIII antigen (FVIII:Ag) ELISA. FVIII:Ag levels in mouse plasma post hydrodynamic injection with FVIII plasmids were determined by ELISA using murine anti-FVIII antibody (GMA-8020, Green Mountain Antibody, Burlington, VT) and biotin-labeled murine anti-FVIII antibody (GMA-8015, Green Mountain Antibody, Burlington, VT).

The test system of data set [3] is HA mice. The data set can be described thus: Total anti-FVIII IgG ELISA after plasmid-mediated gene transfer. The format is in vivo, mouse. How it is done:
as §2
Supplemental Methods. Measurement of total anti-FVIII IgG. 96 well flat bottom ELISA plates (Corning, Kennebunk, ME) were coated overnight at 4° C. with 0.44 U FVIII/well in coating buffer. Plates were then incubated with blocking buffer (1×Tris-Buffered Saline (TBS), 0.1% Tween-20, and 20% non-fat milk for 1 hour at 37° C. Plates were washed three times with wash buffer I 1×TBS and 0.1% Tween-20) between incubation steps. […] Concentrations of anti-FVIII IgG were evaluated by interpolation against the linear range on a standard curve created using mouse isotype control (Thermo Scientific) that was run in duplicate alongside samples on all plates.

In data set [4] the test system is HA mice. The data set can be described thus: Anti-FVIII inhibitor titers by Bethesda assay after plasmid-mediated gene transfer. The format is in vivo, mouse. The procedure: as §2
Data set [5] has as its system CD4+ T-cells in splenocytes isolated from FVIII-primed HA mice. The data set can be described thus: Mannan inhibition in FVIII-specific T cell proliferation assay. In kind it is cell-based, mouse. The procedure:
as §1

For K2111WQTYRGN2118STGTLMV2125 [2118MP1], the “CD4+ T-cell proliferation” value in data set [1] (peptide 10 μM) is 4.2±1.3%. Moreover, in data set [1] (listed as MP1), the “effect of peptide on CD4+ T-cell proliferation (in words)” value (“effect of peptide” for short) is “increased proliferation levels; also recorded: Enhanced proliferation”.
As for “N2118Q: BDD-FVIII plasmid variant with N2118Q mutation in the C1 domain eliminating the 2118 glycosylation site (SEQ ID NO: 23)”, the “FVIII functional activity levels in treated mouse plasma (average activity)” value in the data set with HA mice [2] came out at 223±77%. The “anti-FVIII IgG level compared to the other three groups” value in the data set on HA mice [3] (peak around day 56, after first plasmid transfer) was “lower antibody levels; also recorded: lower IgG level”. Also, the “drastic increase in anti-FVIII levels after the second challenge” value in the data set with HA mice [3] (second plasmid challenge on day 84, hydrodynamic injection) is “did not; also recorded: remained at a low level”. Also, the “inhibitor responses to FVIII following first plasmid challenge compared to WT BDD-FVIII plasmid” value in the data set on HA mice [4] (after first plasmid challenge) is recorded as “trend of decreased inhibitor responses”. For the same substance, in the data set on HA mice [4] (after second plasmid challenge, compared with WT BDD-FVIII), the “inhibitor titer / inhibitor responses post-second challenge” value is on record as “significantly lower inhibitor titer; also recorded: statistically significant lower inhibitor responses”. Besides, in the data set with HA mice [4] (day 56, after first plasmid transfer), the “inhibitor titers (Bethesda assay) compared to other groups” value is “lower inhibitor titers; also recorded: Low inhibitor titers”.
With “T2114YRGN2118STGTLMVFFG2128 (TYRGN(Man6GlcNAc2)STGTLMVFFG; also: mannosylated; UniProt P00451 2133-2147, looked up, fragment) [2118MP2, mannosylated overlapping 15-mer Peptide 2]”, the figures for the “CD4+ T-cell proliferation” value in data set [1] (peptide 1 μM) and in data set [1] (peptide 10 μM) were 2.9±0.6% and 5.5±2.0%, respectively. For the same substance, in data set [1] (listed as MP2), the “effect of peptide” value is listed as “Enhanced proliferation; also recorded: higher proliferation compared to MP1”.
Consider mannan, for which the “inhibition of T cell proliferation by mannan” value in data set [5] (in response to 0.1 U/ml FVIII) is listed as “only partially inhibited”; in data set [5] (in response to 1 U/ml or 10 U/ml FVIII) it was “no inhibition”; in data set [5] (in response to MP1 at 0.1 and 1 μM), “inhibited”; in data set [5] (in response to all three concentrations of 2118MP1), “inhibited”.
As for “K2111WQTYRGN2118STGTLMV2125 (KWQTYRGNSTGTLMV; non-glycosylated; UniProt P00451 2130-2144, looked up, fragment) [2118NGP1, non-glycosylated 15-mer FVIII peptide centered around site N2118]”, the “effect of peptide” value is reported as “negligible effects” in data set [1] and “negligible effects; also recorded: nearly no proliferation” in data set [1] (listed as NGP1).
Take “K2111WQTYRGN2118STGTLMV2125 (KWQTYRGN(GlcNAc)STGTLMV; UniProt P00451 2130-2144, looked up, fragment) [2118GlcP1, Peptide 1 with a single GlcNAc residue at N2118]”: the “effect of peptide” value in data set [1] is reported as “negligible effects”.
For the substance “FIX: Factor IX as a nonspecific antigen control [reference compound]”, the “CD4+ T-cell proliferation response to protein antigen controls” value in data set [1] (increasing doses of FVIII, FIX as nonspecific antigen control) is recorded as “no response”.
For “T2114YRGN2118STGTLMVFFG2128 (TYRGNSTGTLMVFFG; non-glycosylated; UniProt P00451 2133-2147, looked up, fragment) [2118NGP2, non-glycosylated counterpart of 2118MP2]”, in data set [1], the “effect of peptide” value is reported as “nearly no proliferation”.
The same measure, in the same setting: the entry for “D2108GKKWQTYRGN2118STGT2122 (DGKKWQTYRGN(Man6GlcNAc2)STGT; also: mannosylated; UniProt P00451 2127-2141, looked up, fragment) [2118MP3, mannosylated overlapping 15-mer Peptide 3]” is “little to no proliferation”.
